Data from the supplement of paper PMC10307832.

Assays:
Assay in all cases: relative viability (nuclei count vs DMSO), 5 days (fraction); higher = more cells survive
[1] = compound: CC[C@H](CO)Nc1nc(NCc2ccccc2)c2ncn(C(C)C)c2n1 [Seliciclib] + CC(=O)c1c(C)c2cnc(Nc3ccc(N4CCNCC4)cn3)nc2n(C2CCCC2)c1=O [Palbociclib] (partner 0.5 µM)
How it was run: (§1)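 Lung cancer cell lines were pin-tool dosed in 1536-well plates on the day after seeding, with either a lone drug or a fixed anchor-drug dose plus five library-drug doses (not always all listed) in √10 steps. Nuclei were counted on 4× images after 5 days. Relative viability is the ratio of treated-well to vehicle-well nuclei counts, with each value a median of duplicate plates.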

[2] = compound: CC[C@H](CO)Nc1nc(NCc2ccccc2)c2ncn(C(C)C)c2n1 [Seliciclib] + Cc1nc(NC(=O)N2CCC[C@H]2C(N)=O)sc1-c1ccnc(C(C)(C)C(F)(F)F)c1 [Alpelisib] (partner 2 µM)
How it was run: as §1

[3] = compound: CC[C@H](CO)Nc1nc(NCc2ccccc2)c2ncn(C(C)C)c2n1 [Seliciclib] + Nc1nc2[nH]cc(CCc3ccc(C(=O)N[C@@H](CCC(=O)O)C(=O)O)cc3)c2c(=O)[nH]1 [Pemetrexed] (partner 0.2 µM)
How it was run: as §1

[4] = compound: CC[C@H](CO)Nc1nc(NCc2ccccc2)c2ncn(C(C)C)c2n1 [Seliciclib] + O=C(c1cc(Cc2n[nH]c(=O)c3ccccc23)ccc1F)N1CCN(C(=O)C2CC2)CC1 [Olaparib] (partner 8 µM)
How it was run: as §1

Cell Line	relative viability ([1]; first compound 0.08 µM)	relative viability ([1]; first compound 0.253 µM)	relative viability ([1]; first compound 0.8 µM)	relative viability ([1]; first compound 2.53 µM)	relative viability ([1]; first compound 8 µM)	relative viability ([2]; first compound 0.08 µM)	relative viability ([2]; first compound 0.253 µM)	relative viability ([2]; first compound 0.8 µM)	relative viability ([2]; first compound 2.53 µM)	relative viability ([2]; first compound 8 µM)	relative viability ([3]; first compound 0.08 µM)	relative viability ([3]; first compound 0.253 µM)	relative viability ([3]; first compound 0.8 µM)	relative viability ([3]; first compound 2.53 µM)	relative viability ([3]; first compound 8 µM)	relative viability ([4]; first compound 0.08 µM)	relative viability ([4]; first compound 0.253 µM)	relative viability ([4]; first compound 0.8 µM)	relative viability ([4]; first compound 2.53 µM)	relative viability ([4]; first compound 8 µM)
201T	0.329	0.349	0.353	0.327	0.277	1.01	1.02	0.997	0.997	0.966	0.379	0.357	0.382	0.27	0.323	0.805	0.834	0.812	0.882	0.805
A549						0.763	0.67	0.696	0.656	0.458						0.3	0.41	0.251	0.26	0.361
A-427	0.488	0.55	0.504	0.468	0.427	1.05	1.16	1.12	1.08	0.927	1.01	1.01	1.03	0.963	0.917	0.79	0.714	0.712	0.617	0.639
ABC-1	0.673	0.565	0.863		0.562	0.819	0.888	0.775	0.964	0.931						0.864	0.741	0.615		0.782
BEN	0.476	0.469	0.473	0.499	0.453	1.13		0.844	1.12	0.862	0.805	0.676	0.67	0.611	0.63	0.898	1.01	1.16	1.01	0.815
CAL-12T	0.524	0.469	0.354	0.226	0.207	1.11		0.86	1	0.946	1.16	0.949	1.2	1.06	1.01	0.759	0.712	0.742	0.585	0.472
COR-L23	0.298	0.315	0.262	0.19	0.165	0.708	0.868	0.764	0.78	0.538	0.209	0.192	0.195	0.198	0.212	0.302	0.451	0.345	0.364	0.297
COR-L 105	0.432	0.392	0.276	0.365	0.397	0.994	0.808	1.05	1.04	0.748	0.98	1.09	1.21	1.09	1.01	0.656	0.602	0.7	0.713	0.733
Calu-6						0.942	0.993	1.04	1.01	0.809						0.602	0.658	0.565	0.624	0.532
ChaGo-K-1	0.915	0.957	0.755	0.875	0.805						0.25	0.253	0.264	0.251	0.251	0.424	0.464	0.379	0.425	0.359
EKVX	0.365	0.305	0.311	0.16	0.204	0.844	0.9	0.799	0.794	0.674	0.368	0.37	0.354	0.379	0.472	0.772	1.08	0.749	0.682	0.775
EMC-BAC-2	0.516	0.474	0.543	0.423	0.455	0.759	0.731	0.739	0.774	0.703	0.417	0.476	0.547	0.468	0.508	0.493	0.494	0.59	0.447	0.446
EPLC-272H	0.33	0.247	0.284	0.323	0.311	0.968	0.847	0.795	1.04	0.895	0.326	0.357	0.274	0.329	0.229	0.919	0.729	0.667	0.791	0.441
H3255	0.344	0.314	0.306	0.26	0.293	0.608	0.667	0.721	0.806	0.587	0.555	0.624	0.639	0.471	0.534	0.545	0.575	0.552	0.518	0.518
HARA	0.284	0.282	0.229	0.259	0.163	0.892	0.911	0.747	0.855	0.776	0.238	0.28	0.244	0.227	0.21	1.05	0.66	0.784	0.909	0.924
HCC-15	0.846	0.782	0.666	0.726	0.493	0.956	0.954	0.846	0.902	0.712	0.221	0.223	0.219	0.218	0.226	0.707	0.792	0.72	0.796	0.669
HCC-44	0.969	1.02	0.994	0.883	0.889	0.845	0.834	0.798	0.74	0.707	0.631	0.676	0.684	0.617	0.645	0.978	1.03	1.01	0.966	0.973
HCC-78	0.504	0.438	0.514	0.395	0.382	0.375	0.358	0.329	0.285	0.339	0.852	0.89	0.914	0.958	0.88	0.693	0.906	0.695	0.604	0.499
HCC-366	0.35	0.272	0.345	0.328	0.166	0.367	0.302	0.342	0.344	0.371	0.153	0.327	0.212	0.295	0.241	0.335	0.422	0.35	0.456	0.234

Cell Line	relative viability ([1]; first compound 0.08 µM)	relative viability ([1]; first compound 0.253 µM)	relative viability ([1]; first compound 0.8 µM)	relative viability ([1]; first compound 2.53 µM)	relative viability ([1]; first compound 8 µM)	relative viability ([2]; first compound 0.08 µM)	relative viability ([2]; first compound 0.253 µM)	relative viability ([2]; first compound 0.8 µM)	relative viability ([2]; first compound 2.53 µM)	relative viability ([2]; first compound 8 µM)	relative viability ([3]; first compound 0.08 µM)	relative viability ([3]; first compound 0.253 µM)	relative viability ([3]; first compound 0.8 µM)	relative viability ([3]; first compound 2.53 µM)	relative viability ([3]; first compound 8 µM)	relative viability ([4]; first compound 0.08 µM)	relative viability ([4]; first compound 0.253 µM)	relative viability ([4]; first compound 0.8 µM)	relative viability ([4]; first compound 2.53 µM)	relative viability ([4]; first compound 8 µM)
HCC-827	0.486	0.493	0.456	0.39	0.231	1.01	1.01	1	1.04	0.784	0.251	0.241	0.258	0.297	0.258	0.623	0.66	0.644	0.612	0.624
HOP-62	0.463	0.398	0.397	0.366	0.308	1.03	0.811	0.942	1.05	0.829	0.285	0.326	0.383	0.339	0.351	0.445	0.398	0.299	0.264	0.391
IA-LM						0.645	0.935	0.599	0.979	0.556						0.8	0.973	0.879	0.72	0.745
LC-2-ad	0.49	0.524	0.494	0.466	0.371	0.852	0.852	0.4	0.899	0.635	0.264	0.25	0.285	0.279	0.248	0.64	0.759	0.681	0.794	0.638
LCLC-97TM1	0.219	0.242	0.186	0.184	0.108	0.243	0.308	0.382		0.23	0.206	0.148	0.192	0.135	0.135	0.453	0.47	0.322	0.381	0.265
LCLC-103H	0.524	0.51	0.486	0.469	0.423	0.992	0.957	0.869	1.05	0.906	0.377	0.439	0.514	0.456	0.494	0.671	0.81	0.748	0.774	0.704
LK-2	0.466	0.423	0.509	0.447	0.285	1.05	0.968	0.955	1.17	0.822	0.25	0.274	0.266	0.166	0.195	0.817	0.723	0.739	0.398	0.718
LOU-NH91		0.56	0.513	0.492	0.466	0.687	0.689	0.661	0.653	0.515		0.394	0.367	0.44	0.393		0.93	0.891	0.925	0.782
LU99A	0.378	0.332	0.357	0.318	0.275	0.491	0.518	0.452	0.359	0.416	0.172	0.211	0.204	0.197	0.188	0.252	0.264	0.284	0.279	0.278
NCI-H522	0.913	1.01	0.972	0.909	0.87						1.11	0.917	1.18	1.01	0.914	0.797	0.621	0.533	0.64	0.59
NCI-H596						0.522	0.428	0.498	0.506	0.468	0.484		0.534	0.557	0.51	0.724		0.695	0.781	0.764
NCI-H727	0.619	0.601	0.555	0.577	0.575	0.571	0.696	0.49	0.526	0.538						0.873	0.805	0.596	0.74	0.731
NCI-H1299						1.02	1.17	1.1	1.08	0.986						0.967	1.08	0.957	0.949	0.954
NCI-H1563						0.952	0.872	0.954	0.927	0.882	0.8	0.716	0.85	0.698	0.668					
NCI-H1648	0.259	0.332	0.308	0.231	0.169						0.767	0.922	0.963	0.675	0.591	1.2	0.968	0.735	0.734	0.397
NCI-H1650	0.369	0.317	0.332	0.353	0.216						0.429	0.346	0.36	0.427	0.399	0.576	0.804	0.754	0.666	0.756
NCI-H1703						0.322	0.421	0.288	0.354	0.229						0.467	0.54	0.528	0.439	0.352
NCI-H2342	0.63	0.477	0.539	0.524	0.492						0.748	0.779	0.752	0.693	0.711	0.417	0.394	0.347	0.429	0.453
SW 900	0.583	0.489	0.513	0.411	0.306						0.515	0.501	0.484	0.451	0.406	0.769	0.89	0.79	0.721	0.437
